One may read the melting point as the temperature, or range, at which the solid turns liquid.

Sequence of α-Glucosidase (E.C.3.2.1.20) (P53341 whole entry): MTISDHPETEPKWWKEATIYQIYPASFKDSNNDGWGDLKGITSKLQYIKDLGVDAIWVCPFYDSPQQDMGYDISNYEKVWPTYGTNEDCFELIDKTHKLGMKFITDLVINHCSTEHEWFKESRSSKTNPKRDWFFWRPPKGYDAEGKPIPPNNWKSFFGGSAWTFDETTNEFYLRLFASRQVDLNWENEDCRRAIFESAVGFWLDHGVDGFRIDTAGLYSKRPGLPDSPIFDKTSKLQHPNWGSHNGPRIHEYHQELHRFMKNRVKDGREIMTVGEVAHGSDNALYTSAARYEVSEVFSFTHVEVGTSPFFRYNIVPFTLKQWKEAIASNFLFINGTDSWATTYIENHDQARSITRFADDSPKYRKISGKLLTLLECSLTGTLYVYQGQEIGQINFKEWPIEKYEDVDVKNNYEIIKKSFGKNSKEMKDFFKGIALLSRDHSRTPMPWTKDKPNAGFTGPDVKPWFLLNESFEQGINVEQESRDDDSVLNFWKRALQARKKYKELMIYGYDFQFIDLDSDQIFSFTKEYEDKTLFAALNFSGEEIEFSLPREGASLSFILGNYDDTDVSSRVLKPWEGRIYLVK

Tested on in one data set: not given
Experiment: not given
For `COc1ccccc1/C(C)=N/NC(=O)C(C)c1ccc(-c2ccccc2)c(F)c1` (centres unmarked) [Compound 5m, (E)-2-(2-Fluoro-[1,1′-biphenyl]-4-yl)-N′-(1-(2-methoxyphenyl)ethylidene)propanehydrazide], the melting point amounted to 198 °C.

The molecule `COc1ccc2c(c1)CCC/C2=N\NC(=O)C(C)c1ccc(-c2ccccc2)c(F)c1` (centres unmarked) [Compound 5c, (E)-2-(2-Fluoro-[1,1′-biphenyl]-4-yl)-N′-(6-methoxy-3,4-dihydronaphthalen-1(2H) -ylidene)propanehydrazide] had a melting point of 187 °C.

Turning to `CC(C(=O)N/N=C/c1ccc(Br)cc1F)c1ccc(-c2ccccc2)c(F)c1` (centres unmarked) [Compound 4g, (E)-N′-(4-Bromo-2-fluorobenzylidene)-2-(2-fluoro-[1,1′-biphenyl]-4-yl)propanehydrazide], the melting point lay in the range of 166 to 168 °C.

Molecule `CC(C)/C(=N\NC(=O)C(C)c1ccc(-c2ccccc2)c(F)c1)c1ccccc1` (centres unmarked) [Compound 5h, (E)-2-(2-Fluoro-[1,1′-biphenyl]-4-yl)-N′-(2-methyl-1-phenylpropylidene)propanehydrazide] returned a melting point of 177 °C.

Consider `CC(C(=O)N/N=C/c1cccc([N+](=O)[O-])c1)c1ccc(-c2ccccc2)c(F)c1` (centres unmarked) [Compound 4b, (E)-2-(2-Fluoro-[1,1′-biphenyl]-4-yl)-N′-(3-nitrobenzylidene)propanehydrazide], for which the melting point fell in the range of 145 to 147 °C.

In turn, `CCCCC/C=N/NC(=O)C(C)c1ccc(-c2ccccc2)c(F)c1` (centres unmarked) [Compound 4l, (E)-2-(2-Fluoro-[1, 1′-biphenyl]-4-yl)-N′-hexylidenepropanehydrazide] displayed a melting point of 129 to 130 °C.

`CCC/C=N/NC(=O)C(C)c1ccc(-c2ccccc2)c(F)c1` (centres unmarked) [Compound 4k, (E)-N′-Butylidene-2-(2-fluoro-[1,1′-biphenyl]-4-yl)propanehydrazide] registered a melting point of 168 to 169 °C.

`COc1cccc(/C=N/NC(=O)C(C)c2ccc(-c3ccccc3)c(F)c2)c1O` (centres unmarked) [Compound 4d, (E)-2-(2-Fluoro-[1,1′-biphenyl]-4-yl)-N′-(2-hydroxy-3-methoxybenzylidene)propanehydrazide]: the melting point is 154 to 155 °C.

The molecule `COc1ccc(/C=N/NC(=O)C(C)c2ccc(-c3ccccc3)c(F)c2)cc1O` (centres unmarked) [Compound 4f, (E)-2-(2-Fluoro-[1, 1′-biphenyl]-4-yl)-N′-(3-hydroxy-4-methoxybenzylidene)propanehydrazide] gave a melting point of 126 to 127 °C.

`C/C(=N\NC(=O)C(C)c1ccc(-c2ccccc2)c(F)c1)c1ccc([N+](=O)[O-])cc1` (centres unmarked) [Compound 5b, (E)-2-(2-Fluoro-[1,1′-biphenyl]-4-yl)-N′-(1-(4-nitrophenyl)ethylidene)propanehydrazide] yielded a melting point of 175 °C.

Turning to `CC(C(=O)N/N=C/c1ccc(C(=O)O)cc1)c1ccc(-c2ccccc2)c(F)c1` (centres unmarked) [Compound 4p, (E)-4-((2-(2-(2-Fluoro-[1,1′-biphenyl]-4-yl)propanoyl)hydrazono)methyl)benzoic acid], the melting point lay in the range of 176 to 177 °C.

As for `CCCC/C(=N\NC(=O)C(C)c1ccc(-c2ccccc2)c(F)c1)c1ccccc1` (centres unmarked) [Compound 5i, (E)-2-(2-Fluoro-[1,1′-biphenyl]-4-yl)-N′-(1-phenylpentylidene)propanehydrazide], the melting point stood at 165 °C.

Consider `CC(C(=O)N/N=C/c1ccc(O)cc1O)c1ccc(-c2ccccc2)c(F)c1` (centres unmarked) [Compound 4c, (E)-N′-(2,4-Dihydroxybenzylidene)-2-(2-fluoro-[1,1′-biphenyl]-4-yl)propanehydrazide], for which the melting point was in the range of 133 to 135 °C.

The molecule `COc1cc(/C=N/NC(=O)C(C)c2ccc(-c3ccccc3)c(F)c2)cc(OC)c1OC` (centres unmarked) [Compound 4a, (E)-2-(2-Fluoro-[1,1′-biphenyl]-4-yl)-N′-(3,4,5-trimethoxybenzylidene)propanehydrazide] displayed a melting point of 139 to 140 °C.

`CC(C(=O)NN=Cc1cc(Br)c(O)c(Br)c1)c1ccc(-c2ccccc2)c(F)c1` (centres unmarked) [Compound 4i, (E)-N′-(3,5-Dibromo-4-hydroxybenzylidene)-2-(2-fluoro-[1,1′-biphenyl]-4-yl)propane hydrazide] gave a melting point of 161 to 162 °C.

Molecule `CC(C(=O)N/N=C/c1cccc(Br)c1)c1ccc(-c2ccccc2)c(F)c1` (centres unmarked) [Compound 4h, (E)-N′-(3-Bromobenzylidene)-2-(2-fluoro-[1,1′-biphenyl]-4-yl)propanehydrazide] displayed a melting point of 147 to 148 °C.

Molecule `C/C(=N\NC(=O)C(C)c1ccc(-c2ccccc2)c(F)c1)c1ccccc1` (centres unmarked) [Compound 5f, (E)-2-(2-Fluoro-[1,1′-biphenyl]-4-yl)-N′-(1-phenylethylidene)propanehydrazide] returned a melting point of 181 °C.

Molecule `CCN(CC)c1ccc(/C=N/NC(=O)C(C)c2ccc(-c3ccccc3)c(F)c2)cc1` (centres unmarked) [Compound 4e, (E)-N′-(4-(Diethylamino)benzylidene)-2-(2-fluoro-[1,1′-biphenyl]-4-yl)propanehydrazide] had a melting point of 144 to 145 °C.

The molecule `COc1ccccc1/C=N/NC(=O)C(C)c1ccc(-c2ccccc2)c(F)c1` (centres unmarked) [Compound 4m, (E)-2-(2-Fluoro-[1,1′-biphenyl]-4-yl)-N′-(2-methoxybenzylidene)propanehydrazide] returned a melting point of 131 to 132 °C.

For `C/C(=N\NC(=O)C(C)c1ccc(-c2ccccc2)c(F)c1)C1CC1` (centres unmarked) [Compound 5j, (E)-N′-(1-Cyclopropylethylidene)-2-(2-fluoro-[1,1′-biphenyl]-4-yl)propanehydrazide], the melting point stood at 160 °C.

In turn, `CC/C(=N\NC(=O)C(C)c1ccc(-c2ccccc2)c(F)c1)c1ccccc1` (centres unmarked) [Compound 5g, (E)-2-(2-Fluoro-[1,1′-biphenyl]-4-yl)-N′-(1-phenylpropylidene)propanehydrazide] showed a melting point of 179 °C.

Molecule `CC(C(=O)N/N=C/c1cccc2ccccc12)c1ccc(-c2ccccc2)c(F)c1` (centres unmarked) [Compound 4n, (E)-2-(2-Fluoro-[1,1′-biphenyl]-4-yl)-N′-(naphthalen-1-ylmethylene)propanehydrazide] registered a melting point of 168 to 170 °C.

Turning to `CC(C(=O)NN=C1CCCCC1)c1ccc(-c2ccccc2)c(F)c1` (centres unmarked) [Compound 5l, N′-Cyclohexylidene-2-(2-fluoro-[1,1′-biphenyl]-4-yl)propanehydrazide], the melting point came out at 177 °C.

`C/C(=N\NC(=O)C(C)c1ccc(-c2ccccc2)c(F)c1)c1ccc(O)cc1` (centres unmarked) [Compound 5a, (E)-2-(2-Fluoro-[1,1′-biphenyl]-4-yl)-N′-(1-(4-hydroxyphenyl)ethylidene)propanehydrazide] yielded a melting point of 152 °C.

`CCC/C(=N\NC(=O)C(C)c1ccc(-c2ccccc2)c(F)c1)c1ccccc1` (centres unmarked) [Compound 5k, (E)-2-(2-Fluoro-[1,1′-biphenyl]-4-yl)-N′-(1-phenylbutylidene)propanehydrazide] gave a melting point of 183 °C.

As to `COc1ccc(/C(C)=N/NC(=O)C(C)c2ccc(-c3ccccc3)c(F)c2)cc1` (centres unmarked) [Compound 5n, (E)-2-(2-Fluoro-[1,1′-biphenyl]-4-yl)-N′-(1-(4-methoxyphenyl)ethylidene)propanehydrazide], the melting point was determined as 192 °C.

Turning to `CCOc1cc(/C=N/NC(=O)C(C)c2ccc(-c3ccccc3)c(F)c2)ccc1O` (centres unmarked) [Compound 4j, (E)-N′-(3-Ethoxy-4-hydroxybenzylidene)-2-(2-fluoro-[1,1′-biphenyl]-4-yl)propanehydrazide], the melting point lay within 173 to 174 °C.

The next data set concerns the target α-Glucosidase (E.C.3.2.1.20) (Saccharomyces cerevisiae, UniProt P53341). As to the kind of experiment: In vitro α-glucosidase inhibition assay. The class given is biochemical.
Method: α-Glucosidase (E.C.3.2.1.20) enzyme inhibition assay was developed by using 0.1 M phosphate buffer (pH 6.8) at 37 °C [39, 40, 41]. The enzyme (0.2 μ/mL) was incubated in phosphate-buffered saline with different concentrations of tested compounds at 37 °C for 15 min. […] Test compounds were substituted with DMSO-d6 (7.5% final) in the control. […] The % inhibition was calculated by using the following formula:
% Inhibition = 100 − (OD test well/OD control) × 100.
In the case of `CCC/C=N/NC(=O)C(C)c1ccc(-c2ccccc2)c(F)c1` (centres unmarked) [Compound 4k, (E)-N′-Butylidene-2-(2-fluoro-[1,1′-biphenyl]-4-yl)propanehydrazide], the “α-glucosidase inhibitory activity (in words)” value is “moderate-to-low activities”.

For `COc1ccc(/C=N/NC(=O)C(C)c2ccc(-c3ccccc3)c(F)c2)cc1O` (centres unmarked) [Compound 4f, (E)-2-(2-Fluoro-[1, 1′-biphenyl]-4-yl)-N′-(3-hydroxy-4-methoxybenzylidene)propanehydrazide], the “α-glucosidase inhibitory activity (in words)” value is recorded as “moderate-to-low activities”.

Consider `C/C(=N\NC(=O)C(C)c1ccc(-c2ccccc2)c(F)c1)c1ccccc1` (centres unmarked) [Compound 5f, (E)-2-(2-Fluoro-[1,1′-biphenyl]-4-yl)-N′-(1-phenylethylidene)propanehydrazide], for which the “α-glucosidase inhibitory activity (in words)” value is given as “moderate-to-low activities”.

Turning to `CC/C(=N\NC(=O)C(C)c1ccc(-c2ccccc2)c(F)c1)c1ccccc1` (centres unmarked) [Compound 5g, (E)-2-(2-Fluoro-[1,1′-biphenyl]-4-yl)-N′-(1-phenylpropylidene)propanehydrazide], the “α-glucosidase inhibitory activity (in words)” value is “moderate-to-low activities”.

Turning to `CC(C(=O)N/N=C/c1cccc2ccccc12)c1ccc(-c2ccccc2)c(F)c1` (centres unmarked) [Compound 4n, (E)-2-(2-Fluoro-[1,1′-biphenyl]-4-yl)-N′-(naphthalen-1-ylmethylene)propanehydrazide], the “α-glucosidase inhibitory activity (in words)” value is listed as “moderate-to-low activities”.

Values taken from article PMC9231348, “Bio-Oriented Synthesis of Novel (S)-Flurbiprofen Clubbed Hydrazone Schiff’s Bases for Diabetic Management: In Vitro and In Silico Studies” (Pharmaceuticals, 2022).
